Assay results taken from US20260083704A1, “LXR MODULATORS WITH BICYCLIC CORE MOIETY FOR TREATING DYSLIPIDEMIAS” (OrsoBio, Inc., priority 2022, published 2026).
Like-named read-outs stand apart in the source and are kept apart here.

Key:
LXRβ [1] = target: T1, LXRβ (Homo sapiens, UniProt P55055); assay: LXR Gal4 reporter transient transfection assay (mammalian two-hybrid, HEK293), LXRβ; format: cell-based; conditions: ligand-binding domain (LBD) of LXRβ, HEK293; read-out: LBD-M2H Gal4β
T1 construct: LXRβ (amino acids 156-461); expressed in transfected cells; host or cells: HEK293
T1 sequence (P55055 156-460): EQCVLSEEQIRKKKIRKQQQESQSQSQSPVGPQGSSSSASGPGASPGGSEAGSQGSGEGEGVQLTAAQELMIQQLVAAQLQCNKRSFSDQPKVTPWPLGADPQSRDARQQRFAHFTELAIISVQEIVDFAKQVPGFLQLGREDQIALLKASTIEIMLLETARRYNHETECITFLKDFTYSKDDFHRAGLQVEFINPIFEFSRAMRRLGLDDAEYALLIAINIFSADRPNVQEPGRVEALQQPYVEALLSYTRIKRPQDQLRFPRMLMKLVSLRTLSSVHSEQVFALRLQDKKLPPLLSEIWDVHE
Method in brief: (§1)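 HEK293 cells transiently co-transfected with full-length or LBD LXRα/LXRβ fused to NFkB activation domain, GAL4-DBD-fused SRC1 or NCoR cofactor domain, GAL4-responsive firefly luciferase reporter and Renilla control. Compound added 4 h post-transfection (≤0.2% DMSO), incubated 16 h; firefly and Renilla luminescence read sequentially.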

LXRα [2] = target: T2, LXRα (Homo sapiens, UniProt Q13133); assay: LXR Gal4 reporter transient transfection assay (mammalian two-hybrid, HEK293), LXRα; format: cell-based; conditions: ligand-binding domain (LBD) of LXRα, HEK293; read-out: LBD-M2H Gal4α
T2 construct: expressed in transfected cells; host or cells: HEK293
T2 sequence (Q13133 155-447): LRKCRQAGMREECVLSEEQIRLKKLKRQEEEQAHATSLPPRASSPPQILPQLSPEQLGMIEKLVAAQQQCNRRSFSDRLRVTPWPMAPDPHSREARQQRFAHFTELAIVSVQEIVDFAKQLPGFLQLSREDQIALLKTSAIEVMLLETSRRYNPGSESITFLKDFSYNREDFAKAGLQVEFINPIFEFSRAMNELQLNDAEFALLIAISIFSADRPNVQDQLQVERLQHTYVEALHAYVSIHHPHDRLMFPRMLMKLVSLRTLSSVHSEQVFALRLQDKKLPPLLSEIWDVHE
Protocol: (§2) LXRα and LXRβ activity status was determined via detection of interaction with coactivator and corepressor proteins in mammalian two-hybrid experiments (M2H). For this, via transient transfection the full length (FL) proteins of LXRα (amino acids 1-447; NP005684; SEQ ID NO:1) or LXRβ-(amino acids 1-461; NP009052; SEQ ID NO:2) or the ligand-binding domains (LBD) of LXRα (amino acids 155-447 SEQ ID NO:3) or LXRβ (amino acids 156-461; SEQ ID NO:4) were expressed from pCMV-AD (Stratagene) as fusions to the transcriptional activation domain of NFkB. As cofactors, domains of either the steroid receptor coactivator 1 (SRC1; amino acids 552-887; SEQ ID NO:5) or of the corepressor NCoR (amino acids 1906-2312; NP006302; SEQ ID NO:6) were expressed as fusions to the DNA binding domain of the yeast transcription factor GAL4 (from pCMV-BD; Stratagene). Interaction was monitored via activation of a coexpressed Firefly Luciferase Reporter gene under control of a promoter containing repetitive GAL4 response elements (vector pFRLuc; Stratagene). Transfection efficiency was controlled via cotransfection of constitutively active pRL-CMV Renilla reniformis luciferase reporter (Promega). HEK293 cells were grown in minimum essential medium (MEM) with 2 mM L-glutamine and Earle's balanced salt solution supplemented with 8.3% fetal bovine serum, 0.1 mM non-essential amino acids, 1 mM sodium pyruvate, at 37° C. in 5% CO2. 3.5×10^4 cells/well were plated in 96-well cell culture plates in growth medium supplemented with 8.3% fetal bovine serum for 16-20 h to ˜90% confluency. For transfection, medium was taken off and LXR and cofactor expressing plasmids as well as the reporter plasmids are added in 30 μL OPTIMEM/well including polyethylene-imine (PEI) as vehicle. Typical amounts of plasmids transfected/well: pCMV-AD-LXR (5 ng), pCMV-BD-cofactor (5 ng), pFR-Luc (100 ng), pRL-CMV (0.5 ng). Compound stocks were prepared in DMSO, prediluted in MEM to a total volume of 120 μL, and added 4 h after addition of the transfection mixture (final vehicle concentration not exceeding 0.2%). Cells were incubated for additional 16 h, lysed for 10 min in 1×Passive Lysis Buffer (Promega) and Firefly and Renilla luciferase activities were measured sequentially in the same cell extract using buffers containing D-luciferine and coelenterazine, respectively. Measurements of luminescence were done in a BMG-luminometer.
(§3) The potencies of Compound 21/3 and its analog, Compound pre-6/3, against LXRα and LXRβ were evaluated in biochemical binding assays, cellular mammalian two-hybrid (M2H) interaction assays evaluating nuclear receptor co-repressor (NCOR) recruitment, and cellular reporter assays evaluating transcriptional activity (Table 5).

[3] = target: T3, GST-LXRβ ligand-binding domain (Homo sapiens, UniProt P55055); assay: TR-FRETβ activity assay (NCoA3 coactivator peptide recruitment); format: biochemical; conditions: 1 μM 24(S)-25-epoxycholesterol prestimulation
T3 construct: amino acids 156-461; NP009052; made in house; host or cells: E. coli
T3 sequence (P55055 156-460 limits assumed): T1 sequence (P55055 156-460)
Method in brief: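 E. coli-expressed GST-LXRβ LBD (aa 156-461, 76 nM) with biotinylated NCoA3 peptide (400 nM) in Tris/HCl pH 6.8 containing 1 μM 24(S)-25-epoxycholesterol agonist. Compounds tested at 50 μM down to 0.002 μM in triplicate. TR-FRET (Tb cryptate/XL665, ex 340, em 615/665 nm) read after 1 h at 4° C.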

LXRα [4] = target: T4, LXRα (Homo sapiens, UniProt Q13133); assay: LXR Gal4 reporter transient transfection assay (mammalian two-hybrid, HEK293), LXRα; format: cell-based; set-up: expressed in transfected cells; host or cells: HEK293; conditions: full length (FL) LXRα, HEK293; read-out: FL-M2H Gal4α
T4 sequence (Q13133 1-447): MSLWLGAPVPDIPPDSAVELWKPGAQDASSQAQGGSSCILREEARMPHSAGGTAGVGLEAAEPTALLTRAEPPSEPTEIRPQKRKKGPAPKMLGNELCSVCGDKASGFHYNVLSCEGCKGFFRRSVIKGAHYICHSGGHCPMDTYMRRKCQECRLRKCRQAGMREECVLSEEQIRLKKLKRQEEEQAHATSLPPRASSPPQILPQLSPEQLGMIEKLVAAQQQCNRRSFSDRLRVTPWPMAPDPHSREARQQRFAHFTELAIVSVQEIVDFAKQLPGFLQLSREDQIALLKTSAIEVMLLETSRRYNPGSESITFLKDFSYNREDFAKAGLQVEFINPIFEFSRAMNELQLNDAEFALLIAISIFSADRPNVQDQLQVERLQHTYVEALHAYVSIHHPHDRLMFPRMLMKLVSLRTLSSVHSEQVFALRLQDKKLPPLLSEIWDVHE
Protocol: as §2, §3

LXRβ [5] = target: T5, LXRβ (Homo sapiens, UniProt P55055); assay: LXR Gal4 reporter transient transfection assay (mammalian two-hybrid, HEK293), LXRβ; format: cell-based; set-up: LXRβ (amino acids 156-461); expressed in transfected cells; host or cells: HEK293; conditions: full length (FL) LXRβ, HEK293; read-out: FL-M2H Gal4β
T5 sequence (P55055 1-460): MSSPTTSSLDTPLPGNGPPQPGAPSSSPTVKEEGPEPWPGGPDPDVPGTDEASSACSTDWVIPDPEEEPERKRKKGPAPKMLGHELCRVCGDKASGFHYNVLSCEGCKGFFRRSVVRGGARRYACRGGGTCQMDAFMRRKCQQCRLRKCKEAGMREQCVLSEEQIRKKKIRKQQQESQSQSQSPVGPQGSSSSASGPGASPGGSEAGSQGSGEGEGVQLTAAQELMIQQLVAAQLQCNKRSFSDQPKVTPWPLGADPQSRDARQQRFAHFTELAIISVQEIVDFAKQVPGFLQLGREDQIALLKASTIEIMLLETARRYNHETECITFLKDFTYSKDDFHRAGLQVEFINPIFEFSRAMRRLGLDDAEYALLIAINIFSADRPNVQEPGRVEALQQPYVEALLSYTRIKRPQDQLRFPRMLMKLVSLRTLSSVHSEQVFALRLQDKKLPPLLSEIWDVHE
Method in brief: as §1

[6] = Pharmacokinetics in mice after single oral dosing (blood/plasma and liver exposure); format: in vivo; conditions: 20 mg/kg single oral dose, time point 4 h
Protocol: The pharmacokinetics of the compounds was assessed in mice after single dosing and oral administrations. Blood/plasma and liver exposure was measured via LC-MS.
The study design was as follows: • Animals: C57/bl6/J (Janvier) males • Diet: standard rodent chow • Dose: 20 mg/kg • Animal handling: animals were withdrawn from food at least 12 h before administration • Design: single dose oral administration, n=3 animals per group • Sacrifice: at stated time point (4, 12 or 24 h) after administration • Bioanalytics: LC-MS of liver and blood/plasma samples

| Compound | EC50 (LXRβ [1]) | EC50 (LXRα [2]) | EC50 [3] | EC50 (LXRα [4]) | EC50 (LXRβ [5]) | blood/plasma exposure [6] | liver exposure [6] | liver/blood ratio [6] |
| --- | --- | --- | --- | --- | --- | --- | --- | --- |
| COc1ccc(S(=O)(=O)n2c(-c3cccs3)c(-c3ccsc3C#N)c3ccccc32)cc1 [20/14] | < 0.1 µM | < 0.1 µM | 0.1 to 1 µM | – | – | – | – | – |
| N#Cc1sccc1-c1c(-c2cncs2)n(S(=O)(=O)c2ccc(Cl)cc2)c2ccccc12 [Compound 25] | < 0.1 µM | 0.1 to 1 µM | 1 to 10 µM | – | – | – | – | – |
| N#Cc1sccc1-c1c(-c2cccs2)n(S(=O)(=O)c2ccc(Cl)cc2)c2ccc(O)cc12 [Compound 13] | < 0.1 µM | < 0.1 µM | 0.1 to 1 µM | – | – | – | – | – |
| Cc1ccc(S(=O)(=O)n2c(-c3cccc(-c4cccc(C(=O)NS(C)(=O)=O)c4)c3)c(-c3ccsc3C#N)c3ccccc32)cc1 [Compound 32] | 0.1 to 1 µM | 0.1 to 1 µM | 0.1 to 1 µM | – | – | – | – | – |
| N#Cc1sccc1-c1c(-c2cccs2)n(S(=O)(=O)c2ccc(Cl)cc2)c2ccc(OCC(=O)O)cc12 [Compound 15] | > 10 µM | 1 to 10 µM | > 10 µM | – | – | – | – | – |
| COc1ccc(S(=O)(=O)n2c(-c3ccc(CCC(N)=O)cc3)c(-c3ccsc3C#N)c3ccccc32)cc1 [Compound 28] | 0.1 to 1 µM | 1 to 10 µM | 1 to 10 µM | – | – | – | – | – |
| Cc1cccc(S(=O)(=O)n2c(-c3cccc(N4CC(C(=O)O)C4)c3)c(-c3ccsc3C#N)c3cc(F)ccc32)c1 [3/8] | < 0.1 µM | 0.1 to 1 µM | 1 to 10 µM | – | – | – | – | – |
| N#Cc1sccc1-c1c(-c2cccs2)n(S(=O)(=O)c2ccc(Cl)cc2)c2ccc(C(=O)O)cc12 [Compound 23] | 0.1 to 1 µM | 0.1 to 1 µM | > 10 µM | – | – | – | – | – |
| O=S(=O)(c1ccc(Cl)cc1)n1c(-c2cccs2)c(-c2ccsc2Cl)c2ccccc21 [Compound 20] | < 0.1 µM | < 0.1 µM | 0.1 to 1 µM | – | – | – | – | – |
| N#Cc1cccc(C#N)c1-c1c(-c2cccc(-c3ccc(C(=O)O)cc3)c2)n(S(=O)(=O)c2ccc(C(F)F)cc2)c2ccc(F)cc12 [11/50] | – | – | < 0.1 µM | < 0.1 µM | < 0.1 µM | – | – | – |
| Cc1ccc(S(=O)(=O)n2c(-c3cccc(-c4ccc(CN5CCN(C)CC5)cc4)c3)c(-c3ccsc3C#N)c3cc(F)ccc32)cc1 [Compound 8] | – | – | 0.1 to 1 µM | 0.1 to 1 µM | < 0.1 µM | B (300 nM to ≤1 μM) | D (>3 μM) | B (3 to ≤10) |
| Cc1ccc(S(=O)(=O)n2c(-c3cccc(C4CC4C(=O)O)c3)c(-c3ccsc3C#N)c3ccccc32)cc1 (stereo not drawn) [Compound 30] | < 0.1 µM | < 0.1 µM | 0.1 to 1 µM | – | – | – | – | – |
| N#Cc1cccc(-c2c(-c3cccc(-c4ccc(C(=O)O)cc4Cl)c3)n(S(=O)(=O)c3ccc(C(F)F)cc3)c3ccc(F)cc23)c1 [C11/48] | – | – | < 0.1 µM | < 0.1 µM | < 0.1 µM | – | – | – |
| Cc1cccc(C#N)c1-c1c(-c2cccc(-c3ccc(C(=O)O)cc3Cl)c2)n(S(=O)(=O)c2ccc(C(F)F)cc2)c2ccc(F)cc12 [11/36] | – | – | < 0.1 µM | < 0.1 µM | < 0.1 µM | – | – | – |
